Counter-ions that a name gives are not always drawn.
Experiments:
HDAC1 = HDAC1 (Homo sapiens, UniProt Q13547); experiment: Test of HDAC activities, HDAC1 Fluorimetric Drug Discovery Assay Kit; assay type: biochemical; parameters: purchased Enzolifesciences BML-AK511; conditions: samples at 100, 1000, 10000 nM; 37° C. 60 minutes; fluorescence Ex 390, Em 460; read-out: HDAC inhibitory activities, HDAC1
Procedure: (§1) The HDAC inhibitory activities of test materials were measured using the HDAC1 Fluorimetric Drug Discovery Assay Kit (Enzolifesciences: BML-AK511) and HDAC6 human recombinant (Calbiochem: 382180). In the HDAC1 assay, the samples were treated with concentrations of 100, 1000, and 10000 nM, and in the HDAC6 assay, the samples were treated with concentrations of 0.1, 1, 10, 100, and 1000 nM. After the treatment of the samples, the samples were reacted at 37° C. for 60 minutes, treated with a developer, and then reacted at 37° C. for 30 minutes. Then, the fluorescence intensity (Ex 390, Em 460) was measured using the FlexStation 3 (Molecular device).

HDAC 6 = molecular target: T1, HDAC 6 (Homo sapiens, UniProt Q9UBN7); experiment: Test of HDAC activities, HDAC6 (fluorimetric); assay type: biochemical; parameters: purchased Calbiochem 382180; conditions: samples at 0.1, 1, 10, 100, 1000 nM; 37° C. 60 minutes; fluorescence Ex 390, Em 460; read-out: HDAC inhibitory activities, HDAC6
T1 sequence (Q9UBN7 1-1215): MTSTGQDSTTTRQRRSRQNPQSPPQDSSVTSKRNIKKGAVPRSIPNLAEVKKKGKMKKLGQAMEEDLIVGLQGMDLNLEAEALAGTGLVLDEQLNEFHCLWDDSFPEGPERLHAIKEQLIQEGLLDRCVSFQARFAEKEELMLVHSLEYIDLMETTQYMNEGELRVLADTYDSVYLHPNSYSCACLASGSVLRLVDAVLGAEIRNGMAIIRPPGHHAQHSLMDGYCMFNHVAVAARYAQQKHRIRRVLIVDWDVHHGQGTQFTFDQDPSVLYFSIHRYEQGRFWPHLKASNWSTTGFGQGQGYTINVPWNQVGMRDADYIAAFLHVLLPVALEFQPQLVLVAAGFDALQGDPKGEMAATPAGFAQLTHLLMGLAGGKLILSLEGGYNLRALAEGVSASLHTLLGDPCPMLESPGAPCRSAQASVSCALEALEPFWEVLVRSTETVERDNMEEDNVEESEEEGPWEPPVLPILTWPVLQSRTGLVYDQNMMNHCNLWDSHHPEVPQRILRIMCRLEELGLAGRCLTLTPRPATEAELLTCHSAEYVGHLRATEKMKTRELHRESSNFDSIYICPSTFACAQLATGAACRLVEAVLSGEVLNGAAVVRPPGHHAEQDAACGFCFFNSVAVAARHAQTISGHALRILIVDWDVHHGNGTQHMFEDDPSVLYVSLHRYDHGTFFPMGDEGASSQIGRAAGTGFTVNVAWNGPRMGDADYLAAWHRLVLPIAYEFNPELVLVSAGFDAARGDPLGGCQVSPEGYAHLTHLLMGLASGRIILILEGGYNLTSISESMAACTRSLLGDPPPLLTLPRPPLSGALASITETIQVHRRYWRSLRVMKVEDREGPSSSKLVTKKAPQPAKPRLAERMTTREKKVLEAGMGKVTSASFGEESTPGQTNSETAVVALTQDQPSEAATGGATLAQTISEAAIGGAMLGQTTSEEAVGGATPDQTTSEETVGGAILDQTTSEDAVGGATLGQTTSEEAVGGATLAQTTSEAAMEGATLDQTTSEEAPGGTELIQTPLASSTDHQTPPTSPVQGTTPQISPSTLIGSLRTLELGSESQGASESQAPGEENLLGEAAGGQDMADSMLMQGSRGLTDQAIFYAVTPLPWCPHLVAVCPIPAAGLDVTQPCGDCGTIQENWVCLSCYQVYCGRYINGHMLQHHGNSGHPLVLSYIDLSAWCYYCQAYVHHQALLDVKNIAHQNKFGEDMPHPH
Procedure: as §1

Sequence of HDAC1 (Q13547 whole entry): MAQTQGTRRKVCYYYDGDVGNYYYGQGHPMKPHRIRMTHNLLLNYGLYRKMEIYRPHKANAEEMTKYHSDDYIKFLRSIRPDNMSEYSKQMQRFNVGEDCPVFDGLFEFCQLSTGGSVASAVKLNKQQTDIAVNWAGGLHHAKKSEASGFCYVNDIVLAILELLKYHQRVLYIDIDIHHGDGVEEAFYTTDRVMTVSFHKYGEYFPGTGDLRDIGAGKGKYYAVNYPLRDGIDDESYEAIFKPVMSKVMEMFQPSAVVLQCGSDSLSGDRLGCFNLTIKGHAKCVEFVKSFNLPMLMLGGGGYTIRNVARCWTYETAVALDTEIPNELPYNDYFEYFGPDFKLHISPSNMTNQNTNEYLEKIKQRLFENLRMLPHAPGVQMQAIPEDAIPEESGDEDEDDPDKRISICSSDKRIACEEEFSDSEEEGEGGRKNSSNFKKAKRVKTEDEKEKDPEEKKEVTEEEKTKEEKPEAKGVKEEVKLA

SMILES | IC50 (HDAC1) [nM] | IC50 (HDAC 6) [nM]
COc1cccc(N(Cc2ccc(C(=O)NO)cc2)C(=O)N2CCOCC2)c1 [Compound 484, N-(4-(hydroxycarbamoyl)benzyl)-N-(3-methyoxyphenyl)morpholine-4-carboxamide] | 680 | 2
O=C(NO)c1ccc(CN(C(=O)N2CCC(O)(c3ccccc3)CC2)c2ncccn2)cc1 [Compound 311, 4-hydroxy-N-(4-(hydroxycarbamoyl)benzyl)-4-phenyl-N-(pyrimidin-2-yl)piperidine-1-carboxamide] | 22900 | 13
CC(C)(C)OC(=O)N1CC=C(c2cccc(N(Cc3ccc(C(=O)NO)cc3)C(=O)N3CCOCC3)c2)CC1 [Compound 405, tert-butyl 4-(3-(N-(4-(hydroxycarbamoyl)benzyl)morpholine-4-carboxamido)phenyl)-5,6-dihydropyridine-1(2H)-carboxylate] | 1450 | 3
O=C(NO)c1ccc(CN(C(=O)N2CCOCC2)c2cccc(-c3cc(F)cc(F)c3)c2)cc1 [Compound 395, N-(3′,5′-difluorobiphenyl-3-yl)-N-(4-(hydroxycarbamoyl)benzyl)morpholine-4-carboxamide] | 489 | 5
O=C(NO)c1ccc(CN(C(=O)N2CCOCC2)c2cccc(C3=CCOCC3)c2)c(F)c1 [Compound 512, N-(3-(3,6-dihydro-2H-pyran-4-yl)phenyl)-N-(2-fluoro-4-(hydroxycarbamoyl)benzyl)morpholine-4-carboxamide] | 1450 | 14
O=C(NO)c1ccc(CN(C(=O)N2CCN(CCN3CCOCC3)CC2)c2ccc(C(F)(F)F)cc2)cc1 [Compound 543, N-(4-(hydroxycarbamoyl)benzyl)-4-(2-morpholinoethyl)-N-(4-(trifluoromethyl)phenyl)piperazine-1-carboxamide] | 447 | 9
CS(=O)(=O)N1CC=C(c2cccc(N(Cc3ccc(C(=O)NO)cc3)C(=O)N3CCOCC3)c2)CC1 [Compound 420, N-(4-(hydroxycarbamoyl)benzyl)-N-(3-(1-(methylsulfonyl)-1,2,3,6-tetrahydropyridin-4-yl)phenyl)morpholine-4-carboxamide] | 310 | 4
O=C(NO)c1ccc(CN(C(=O)N2CCOCC2)c2cc(C(F)(F)F)ccc2Cl)cc1 [Compound 776, N-(2-chloro-5-(trifluoromethyl)phenyl)-N-(4-(hydroxycarbamoyl)benzyl)morpholine-4-carboxamide] | 1980 | 31.5
O=C(NO)c1ccc(CN(C(=O)N2CCOCC2)c2ccc(C(F)(F)F)cc2)cc1 [Compound 385, N-(4-(hydroxycarbamoyl)benzyl)-N-(4-(trifluoromethyl)phenyl)morpholine-4-carboxamide] | 976 | 5
O=C(NO)c1ccc(CN(C(=O)N2CCOCC2)c2ccc(Cl)cn2)cc1 [Compound 533, N-(5-chloropyridin-2-yl)-N-(4-(hydroxycarbamoyl)benzyl)morpholine-4-carboxamide] | 1890 | 4.5
O=C(NO)c1ccc(CN(C(=O)N2CC[C@@H](F)C2)c2ccc(C(F)(F)F)cc2)cc1 [Compound 520, (R)-3-fluoro-N-(4-(hydroxycarbamoyl)benzyl)-N-(4-(trifluoromethyl)phenyl)pyrrolidine-1-carboxamide] | 1170 | 36
CN1CCN(C(=O)N(Cc2ccc(C(=O)NO)cc2)c2ccc(Cl)c(C(F)(F)F)c2)CC1 [Compound 393, N-(4-chloro-3-(trifluoromethyl)phenyl)-N-(4-(hydroxycarbamoyl)benzyl)-4-methylpiperazine-1-carboxamide] | 1110 | 5
O=C(NO)c1ccc(CN(C(=O)N2CCOCC2)c2cccc(-c3ccc4c(c3)OCCO4)c2)cc1 [Compound 399, N-(3-(2,3-dihydrobenzo[b][1,4]dioxin-6-yl)phenyl)-N-(4-(hydroxycarbamoyl)benzyl)morpholine-4-carboxamide] | 302 | 7
CS(=O)(=O)N1CCC(c2cccc(N(Cc3ccc(C(=O)NO)cc3)C(=O)N3CCOCC3)c2)CC1 [Compound 491, N-(4-(hydroxycarbamoyl)benzyl)-N-(3-(1-(methylsulfonyl)piperidin-4-yl)phenyl)morpholine-4-carboxamide] | 3220 | 9
Cc1ccc(N(Cc2ccc(C(=O)NO)cc2)C(=O)N2CCN(C)CC2)c(F)c1 [Compound 441, N-(2-fluoro-4-methylphenyl)-N-(4-(hydroxycarbamoyl)benzyl)-4-methylpiperazine-1-carboxamide] | 447 | 2
O=C(NO)c1ccc(CN(C(=O)N2CCCC2)c2cccc(-c3ccc4c(c3)OCO4)c2)cc1 [Compound 468, N-(3-(benzo[d][1,3]dioxol-5-yl)phenyl)-N-(4-(hydroxycarbamoyl)benzyl)pyrrolidine-1-carboxamide] | 12300 | 10
O=C(NO)c1ccc(CN(C(=O)N2CCOCC2)c2ccc(C(F)(F)F)cc2)c(F)c1 [Compound 577, N-(2-fluoro-4-(hydroxycarbamoyl)benzyl)-N-(4-(trifluoromethyl)phenyl)morpholine-4-carboxamide] | 1000 | 1.2
CC1CN(C(=O)N(Cc2ccc(C(=O)NO)cc2)c2ccccc2OC(F)(F)F)CC(C)O1 (stereo not drawn) [Compound 801, N-(4-(hydroxycarbamoyl)benzyl)-2,6-dimethyl-N-(2-(trifluoromethoxy)phenyl)morpholine-4-carboxamide] | 14900 | 59.7
CC1CN(C(=O)N(Cc2ccc(C(=O)NO)cc2)c2cccc(OC(F)(F)F)c2)CC(C)O1 (stereo not drawn) [Compound 800, N-(4-(hydroxycarbamoyl)benzyl)-2,6-dimethyl-N-(3-(trifluoromethoxy)phenyl)morpholine-4-carboxamide] | 633 | 78
O=C(NO)c1ccc(CN(C(=O)N2CCOCC2)c2ccc(Cl)c(C(F)(F)F)c2)cc1 [Compound 391, N-(4-chloro-3-(trifluoromethyl)phenyl)-N-(4-(hydroxycarbamoyl)benzyl)morpholine-4-carboxamide] | 2120 | 3
Cn1ncc2cc(-c3cccc(N(Cc4ccc(C(=O)NO)cc4)C(=O)N4CCOCC4)c3)ccc21 [Compound 252, N-(4-(hydroxycarbamoyl)benzyl)-N-(3-(1-methyl-1H-indazol-5-yl)phenyl)morpholine-4-carboxamide] | 151 | 6
O=C(NO)c1ccc(CN(C(=O)N2CCOCC2)c2cccc(C3CCNCC3)c2)cc1 [Compound 493, N-(4-(hydroxycarbamoyl)benzyl)-N-(3-(piperidin-4-yl)phenyl)morpholine-4-carboxamide hydrochloride] | 883 | 11
CC1CN(C(=O)N(Cc2ccc(C(=O)NO)cc2)c2ccc(F)cc2F)CC(C)O1 (stereo not drawn) [Compound 415, N-(2,4-difluorophenyl)-N-(4-(hydroxycarbamoyl)benzyl)-2,6-dimethylmorpholine-4-carboxamide] | 1220 | 5
CC(C)(F)CN1CCC(c2cccc(N(Cc3ccc(C(=O)NO)cc3)C(=O)N3CCOCC3)c2)CC1 [Compound 518, N-(3-(1-(2-fluoro-2-methylpropyl)piperidine-4-yl)phenyl)-N-(4-(hydroxycarbamoyl)benzyl)morpholine-4-carboxamide] | 495 | 14

From US9878986B2, “Compounds for selective histone deacetylase inhibitors, and pharmaceutical composition comprising the same” (CHONG KUN DANG PHARMACEUTICAL CORP., priority 2013, dated 2018)
